Results reported in patent US5260280A (priority 1989, dated 1993).
Several values for one entry are separate records, joined by “and”; a condition that tells them apart may be missing. Identical values can stand only once. Like-named read-outs stand apart in the source and are kept apart here.

Tests used:
[1] = system: CHO-Kl cells; type: cell-based, Chinese hamster
[2] = system: enterotoxin LT-II; set-up: species or system E. coli; conditions: in vivo, po
[3] = target: cholera toxin B-subunits (Vibrio cholerae, UniProt P01556); type: binding
[4] = target: enterotoxin CFA/I(LT-1) (Escherichia coli, UniProt D0Z6T1); type: cell-based, E. coli
[5] = target: cholera toxin CT (Vibrio cholerae, UniProt P01556); type: cell-based
[6] = target: enterotoxin CFA/II(LT-II) (Escherichia coli, UniProt P0CK94); type: cell-based, E. coli
[7] = system: cholera toxin; type: in vivo, Vibrio cholerae; conditions: Balb/c mice, CT 0.25 mg oral on day 8
[8] = system: enterotoxin LT-I; set-up: species or system E. coli; conditions: in vivo, po

Sequence of enterotoxin CFA/I(LT-1) (D0Z6T1 whole entry, looked up): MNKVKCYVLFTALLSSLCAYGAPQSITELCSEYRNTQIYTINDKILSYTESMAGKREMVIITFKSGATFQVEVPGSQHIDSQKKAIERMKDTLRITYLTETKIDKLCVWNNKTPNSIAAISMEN
Sequence of enterotoxin CFA/II(LT-II) (P0CK94 whole entry, looked up): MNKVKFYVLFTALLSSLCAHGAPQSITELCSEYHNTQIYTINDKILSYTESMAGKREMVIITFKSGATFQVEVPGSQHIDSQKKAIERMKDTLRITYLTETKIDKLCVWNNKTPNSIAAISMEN
Sequence of cholera toxin CT (P01556 whole entry, looked up): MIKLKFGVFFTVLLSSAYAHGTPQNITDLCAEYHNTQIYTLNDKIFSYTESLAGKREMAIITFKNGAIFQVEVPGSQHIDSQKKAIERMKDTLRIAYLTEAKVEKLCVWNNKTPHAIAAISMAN

In the case of cholera toxin [CT], the “CHO-Kl cells morphologically altered” value [1] is reported as “at least 70%”.
With ganglioside GD3 the Rate of diarrhea [2] was 40% and 20%.
With kappa-casein the “interference with the binding of the cholera toxin B-subunits to GM1” value (shortened to “interference with the binding”) [3] was “interfered with the binding”, the “neutralization of the toxicity of LT-I against CHO-Kl cells (morphological alteration)” value [4] was “neutralized the toxicity” and the “neutralization of the toxicity of CT against CHO-Kl cells (morphological alteration)” value [5] was “neutralized the toxicity”. The “neutralization of the toxicity of LT-II against CHO-Kl cells (morphological alteration)” value [6] was “neutralized the toxicity”.
With kappa-casein glycomacropeptides [GMP] the “interference with the binding” value [3] was “interfered with the binding”, the “neutralization of the toxicity of LT-I against CHO-Kl cells (morphological alteration)” value [4] was “neutralized the toxicity” and the “neutralization of the toxicity of CT against CHO-Kl cells (morphological alteration)” value [5] was “neutralized the toxicity”. The “neutralization of the toxicity of LT-II against CHO-Kl cells (morphological alteration)” value [6] was “neutralized the toxicity”.
For sialyllactose [SL], the “interference with the binding” value ([3]; GM1-adsorbed plate, peroxidase-labeled CT-B, absorbance at 405 nm) was “interfered with the binding”, the Rate of diarrhea ([7]; oral 0.2 mg/day for 7 days) was 20% and the Rate of diarrhea ([7]; oral 0.5 mg/day for 7 days) was 20%. The Rate of diarrhea ([7]; oral 1.0 mg/day for 7 days) was 0%, the “neutralization of the toxicity of LT-I against CHO-Kl cells (morphological alteration)” value ([4]; samples 1 or 5 micrograms/chamber, LT-I culture supernatant) was “neutralized the toxicity” and the “neutralization of the toxicity of CT against CHO-Kl cells (morphological alteration)” value ([5]; samples 1 or 5 micrograms/chamber, CT 10 micrograms/ml) was “neutralized the toxicity”. The Rate of diarrhea [8] was 40% and 20% and the “neutralization of the toxicity of LT-II against CHO-Kl cells (morphological alteration)” value ([6]; samples 1 or 5 micrograms/chamber, LT-II culture supernatant) was “neutralized the toxicity”.
